These results are taken from patent US9328075B2 (St. Jude Children's Research Hospital, priority 2011, dated 2016).

Structures are written as SMILES.

System in one series: not listed separately
The series is described as follows: in vitro. To be noted: dog.
In the case of `CCCCC(CC)CNC(=O)c1nc(-c2ccccn2)nc(O)c1O` (stereo not shown), the CC50 at 72 h was > 25 µM.

Consider `CCCCCC(C)NC(=O)c1nc(-c2ccccn2)nc(O)c1O` (stereo not shown), for which the CC50 at 72 h is > 25 µM.

With `CC(C)(C)CCNC(=O)c1nc(-c2ccccn2)nc(O)c1O`, the CC50 at 72 h was > 25 µM.

For the molecule `CC(C)CC(C)NC(=O)c1nc(-c2ccccn2)nc(O)c1O` (stereo not shown), the CC50 at 72 h was > 25 µM.

With `CC1CCCCC1NC(=O)c1nc(-c2ccccn2)nc(O)c1O` (stereo not shown), the CC50 at 72 h was 5.5 µM.

Consider `CC1CCC(NC(=O)c2nc(-c3ccccn3)[nH]c(=O)c2O)CC1` (stereo not shown), for which the CC50 at 72 h was > 25 µM.

`O=C(NCc1cccc2ccccc12)c1nc(-c2ccccn2)[nH]c(=O)c1O`: the CC50 at 72 h is > 25 µM.

The molecule `O=C(NC1CCCc2ccccc21)c1nc(-c2ccccn2)[nH]c(=O)c1O` (stereo not shown) returned a CC50 at 72 h of 7 µM.

In the case of `Cc1cccc(NC(=O)c2nc(-c3ccccn3)nc(O)c2O)c1`, the CC50 at 72 h is > 25 µM.

With `CC(C)(C)c1cccc(NC(=O)c2nc(-c3ccccn3)nc(O)c2O)c1`, the CC50 at 72 h was > 25 µM.

`Cc1ccccc1NC(=O)c1nc(-c2ccccn2)nc(O)c1O`: the CC50 at 72 h was > 25 µM.

Take `COc1ccc(NC(=O)c2nc(-c3ccccn3)nc(O)c2O)c(C)c1`: the CC50 at 72 h was > 25 µM.

Regarding `CC(CNC(=O)c1nc(-c2ccccn2)nc(O)c1O)c1ccccc1` (stereo not shown), the CC50 at 72 h is > 25 µM.

The next series concerns A/Puerto Rico/8/34 (H1N1). The series is described as follows: microbe, parasite or virus in culture. The conditions noted are these: Influenza A virus, H1N1, MDCK, 48 h, read-out: Growth Inhibition (%) 20 μM 48 h.
Take `CCCCC(CC)CNC(=O)c1nc(-c2ccccn2)nc(O)c1O` (stereo not shown): the inhibition at 20 µM stood at 94%.

For the molecule `CCCCCC(C)NC(=O)c1nc(-c2ccccn2)nc(O)c1O` (stereo not shown), the inhibition at 20 µM amounted to 88%.

As to `CC(C)(C)CCNC(=O)c1nc(-c2ccccn2)nc(O)c1O`, the inhibition at 20 µM was 88%.

In the case of `CC(C)CC(C)NC(=O)c1nc(-c2ccccn2)nc(O)c1O` (stereo not shown), the inhibition at 20 µM was 50%.

For the molecule `CC1CCCCC1NC(=O)c1nc(-c2ccccn2)nc(O)c1O` (stereo not shown), the inhibition at 20 µM was 97%.

On to `CC1CCC(NC(=O)c2nc(-c3ccccn3)[nH]c(=O)c2O)CC1` (stereo not shown), for which the inhibition at 20 µM was 88%.

As to `O=C(NCc1cccc2ccccc12)c1nc(-c2ccccn2)[nH]c(=O)c1O`, the inhibition at 20 µM is 94%.

`O=C(NC1CCCc2ccccc21)c1nc(-c2ccccn2)[nH]c(=O)c1O` (stereo not shown): the inhibition at 20 µM turned out to be 97%.

`Cc1cccc(NC(=O)c2nc(-c3ccccn3)nc(O)c2O)c1`: the inhibition at 20 µM is 75%.

Turning to `CC(C)(C)c1cccc(NC(=O)c2nc(-c3ccccn3)nc(O)c2O)c1`, the inhibition at 20 µM was determined as 94%.

Take `Cc1ccccc1NC(=O)c1nc(-c2ccccn2)nc(O)c1O`: the inhibition at 20 µM was 94%.

As for `COc1ccc(NC(=O)c2nc(-c3ccccn3)nc(O)c2O)c(C)c1`, the inhibition at 20 µM came to 0%.

For `CC(CNC(=O)c1nc(-c2ccccn2)nc(O)c1O)c1ccccc1` (stereo not shown), the inhibition at 20 µM amounted to 50%.

A further series addresses IRdRp (PB2, PB1, PA and NP from the strain A/Vietnam/1203/04 (H1N1)) (Influenza A virus, UniProt Q5EP34). The series is described as follows: cell-based. Also on record: species or system influenza A/Vietnam/1203/04 (H1N1).
Settings: not given
Molecule `CCCCC(CC)CNC(=O)c1nc(-c2ccccn2)nc(O)c1O` (stereo not shown) displayed an IC50 of 4.3 µM.

`CCCCCC(C)NC(=O)c1nc(-c2ccccn2)nc(O)c1O` (stereo not shown) registered an IC50 of 14.1 µM.

As for `CC(C)(C)CCNC(=O)c1nc(-c2ccccn2)nc(O)c1O`, it took 10.1 µM to reach half-maximal inhibition (IC50). The IC50 values of the last two molecules are within 1.5-fold of each other.

Molecule `CC(C)CC(C)NC(=O)c1nc(-c2ccccn2)nc(O)c1O` (stereo not shown) returned an IC50 of 12.9 µM.

With `CC1CCCCC1NC(=O)c1nc(-c2ccccn2)nc(O)c1O` (stereo not shown), the 50% inhibitory concentration (IC50) is 5.5 µM.

`CC1CCC(NC(=O)c2nc(-c3ccccn3)[nH]c(=O)c2O)CC1` (stereo not shown) registered an IC50 of 5.6 µM.

`O=C(NCc1cccc2ccccc12)c1nc(-c2ccccn2)[nH]c(=O)c1O` gave a concentration for half-maximal inhibition (IC50) of 9.1 µM.

The molecule `O=C(NC1CCCc2ccccc21)c1nc(-c2ccccn2)[nH]c(=O)c1O` (stereo not shown) displayed an IC50 of 3.6 µM.

`Cc1cccc(NC(=O)c2nc(-c3ccccn3)nc(O)c2O)c1` yielded an IC50 of 27.1 µM.

With `CC(C)(C)c1cccc(NC(=O)c2nc(-c3ccccn3)nc(O)c2O)c1`, the IC50 worked out at 5.9 µM.

As to `Cc1ccccc1NC(=O)c1nc(-c2ccccn2)nc(O)c1O`, the midpoint of inhibition, the IC50, lay at 8.9 µM. This IC50 is about 1.5-fold higher than that of the molecule before.

For `COc1ccc(NC(=O)c2nc(-c3ccccn3)nc(O)c2O)c(C)c1`, the IC50 was found to be 10 µM.

`CC(CNC(=O)c1nc(-c2ccccn2)nc(O)c1O)c1ccccc1` (stereo not shown) registered an IC50 of 20.5 µM.

System in the next series: not listed separately
The series can be described thus: in vitro. The conditions noted are these: human.
Consider `CCCCC(CC)CNC(=O)c1nc(-c2ccccn2)nc(O)c1O` (stereo not shown), for which the CC50 at 72 h was < 25 µM.

Take `CCCCCC(C)NC(=O)c1nc(-c2ccccn2)nc(O)c1O` (stereo not shown): the CC50 at 72 h is < 25 µM.

`CC(C)(C)CCNC(=O)c1nc(-c2ccccn2)nc(O)c1O`: the CC50 at 72 h is < 25 µM.

Regarding `CC(C)CC(C)NC(=O)c1nc(-c2ccccn2)nc(O)c1O` (stereo not shown), the CC50 at 72 h was > 25 µM.

`CC1CCCCC1NC(=O)c1nc(-c2ccccn2)nc(O)c1O` (stereo not shown): the CC50 at 72 h was < 25 µM.

With `CC1CCC(NC(=O)c2nc(-c3ccccn3)[nH]c(=O)c2O)CC1` (stereo not shown), the CC50 at 72 h was < 25 µM.

Turning to `O=C(NCc1cccc2ccccc12)c1nc(-c2ccccn2)[nH]c(=O)c1O`, the CC50 at 72 h was < 25 µM.

The molecule `O=C(NC1CCCc2ccccc21)c1nc(-c2ccccn2)[nH]c(=O)c1O` (stereo not shown) gave a CC50 at 72 h of 2.6 µM.

As for `Cc1cccc(NC(=O)c2nc(-c3ccccn3)nc(O)c2O)c1`, the CC50 at 72 h is < 25 µM.

Consider `CC(C)(C)c1cccc(NC(=O)c2nc(-c3ccccn3)nc(O)c2O)c1`, for which the CC50 at 72 h is < 25 µM.

As to `Cc1ccccc1NC(=O)c1nc(-c2ccccn2)nc(O)c1O`, the CC50 at 72 h is > 25 µM.

With `COc1ccc(NC(=O)c2nc(-c3ccccn3)nc(O)c2O)c(C)c1`, the CC50 at 72 h is < 25 µM.

In the case of `CC(CNC(=O)c1nc(-c2ccccn2)nc(O)c1O)c1ccccc1` (stereo not shown), the CC50 at 72 h is < 25 µM.

What is called inhibition is the share of the control response that was lost under treatment. By IC50 is commonly meant the concentration at which inhibition is half-maximal. High values mean lower potency, low ones higher potency.
